Experimental data published in ChEMBL document CHEMBL3576861, “Methyl 3-((6-methoxy-1,4-dihydroindeno[1,2-c]pyrazol-3-yl)amino)benzoate (GN39482) as a tubulin polymerization inhibitor identified by MorphoBase and ChemProteoBase profiling methods” (J Med Chem, 2015).
Calls of active or inactive are those of the source. The calls are words filed in the database; no cut-off is given here.

Tests used:
PC-3 = experiment: Antiproliferative activity against human PC3 cells assessed as inhibition of cell viability after 72 hrs by MTT assay; format: functional, cell-based; conditions: PC-3, 72 h
HeLa [1] = experiment: Antiproliferative activity against human HeLa cells assessed as inhibition of cell viability after 72 hrs by MTT assay; format: functional, cell-based
HEK293 = experiment: Antiproliferative activity against HEK293 cells assessed as inhibition of cell viability after 72 hrs by MTT assay; format: cell-based; conditions: Homo sapiens, HEK293, 72 h
HCT-116 = experiment: Antiproliferative activity against human HCT116 cells assessed as inhibition of cell viability after 72 hrs by MTT assay; format: functional, cell-based; conditions: HCT-116, 72 h
Tubulin (Homo sapiens) [2] = target: T1, Tubulin (Homo sapiens) (UniProt P68371+Q9H4B7+P0DPH7+P68366+Q13509+Q71U36+P04350+Q3ZCM7+P07437+P68363+Q9BQE3+Q6PEY2+Q13885+Q9BVA1+Q9BUF5); experiment: Inhibition of tubulin polymerization in human HeLa cells assessed as reduction of microtubule formation at 100 nM after 6 hrs by DAPI staining-based immunofluorescence assay; format: cell-based
Tubulin (Homo sapiens) [3] = target: T1, Tubulin (Homo sapiens); experiment: Inhibition of acetylated tubulin accumulation in human HeLa cells at 1000 nM after 6 hrs by Western blot analysis; format: cell-based
HeLa [4] = experiment: Cell cycle arrest in human HeLa cells assessed as accumulation at G2/M phase at 0.3 to 30 nM after 24 hrs by propidium iodide staining based flow cytometry; format: functional
HeLa [5] = experiment: Cell cycle arrest in human HeLa cells assessed as accumulation at G2/M phase at 3 to 30 uM after 24 hrs by propidium iodide staining based flow cytometry; format: functional
HeLa [6] = experiment: Cell cycle arrest in human HeLa cells assessed as accumulation at G2/M phase at 100 nM after 24 hrs by propidium iodide staining based flow cytometry; format: functional
Staphylococcus aureus = experiment: Antimicrobial activity against Staphylococcus aureus 209 at 100 nM after 24 hrs by standard microdilution method; format: functional, organism-based
[7] = target: Platelet-derived growth factor receptor beta (Homo sapiens) (UniProt P09619); experiment: Inhibition of N-terminal GST fusion protein human PDGFR-beta cytoplasmic domain expressed in baculovirus using CSKtide as substrate at 10 uM after 1 hr by off-chip Mobility Shift Assay
[8] = target: Vascular endothelial growth factor receptor 2 (Homo sapiens) (UniProt P35968); experiment: Inhibition of N-terminal GST fusion protein human KDR cytoplasmic domain expressed in baculovirus using CSKtide as substrate at 10 uM after 1 hr by off-chip Mobility Shift Assay
Escherichia coli = experiment: Antimicrobial activity against Escherichia coli HO141 at 100 nM after 24 hrs by standard microdilution method; format: functional, organism-based
Candida albicans = experiment: Antimicrobial activity against Candida albicans JCM1542 at 100 nM after 24 hrs by standard microdilution method; format: functional, organism-based
[9] = target: Platelet-derived growth factor receptor beta (Homo sapiens) (UniProt P09619); experiment: Inhibition of N-terminal GST fusion protein human PDGFR-beta cytoplasmic domain expressed in baculovirus using CSKtide as substrate at 0.1 uM after 1 hr by off-chip Mobility Shift Assay
Aspergillus fumigatus = experiment: Antimicrobial activity against Aspergillus fumigatus Af293 at 100 nM after 48 hrs by standard microdilution method; format: functional
[10] = target: T2, Cyclin-dependent kinase 2/cyclin E1 (Homo sapiens) (UniProt P24864+P24941); experiment: Inhibition of N-terminal GST-tagged human full length CDK2/Cyclin E1 expressed in baculovirus using histone H1 as substrate at 0.1 uM after 1 hr by off-chip Mobility Shift Assay
[11] = target: Vascular endothelial growth factor receptor 2 (Homo sapiens) (UniProt P35968); experiment: Inhibition of N-terminal GST fusion protein human KDR cytoplasmic domain expressed in baculovirus using CSKtide as substrate at 0.1 uM after 1 hr by off-chip Mobility Shift Assay
Tubulin (Sus scrofa) = Tubulin (Sus scrofa) (UniProt P02554+P02550); experiment: Inhibition of porcine tubulin polymerization measured every min for 1 hr by fluorescence analysis; format: protein assay
[12] = target: T3, Serine/threonine-protein kinase Chk1 (Homo sapiens) (UniProt O14757); experiment: Inhibition of human full length N-terminal GST fusion protein CHK1 expressed in baculovirus using CHKtide as substrate at 0.1 uM after 1 hr by off-chip Mobility Shift Assay
T3 sequence (whole entry): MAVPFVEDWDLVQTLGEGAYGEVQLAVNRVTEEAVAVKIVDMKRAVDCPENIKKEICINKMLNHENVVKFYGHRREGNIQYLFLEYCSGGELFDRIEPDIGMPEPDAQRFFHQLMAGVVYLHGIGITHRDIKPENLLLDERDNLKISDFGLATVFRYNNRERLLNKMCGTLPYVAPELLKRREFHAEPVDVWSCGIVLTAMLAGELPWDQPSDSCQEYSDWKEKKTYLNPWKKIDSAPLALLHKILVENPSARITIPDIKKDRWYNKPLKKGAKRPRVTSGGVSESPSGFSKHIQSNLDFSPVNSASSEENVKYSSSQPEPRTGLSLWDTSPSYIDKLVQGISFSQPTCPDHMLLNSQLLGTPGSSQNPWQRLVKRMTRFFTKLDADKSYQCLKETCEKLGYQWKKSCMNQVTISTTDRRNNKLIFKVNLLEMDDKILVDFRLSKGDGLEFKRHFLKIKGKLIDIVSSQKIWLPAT

Plasmodium falciparum = experiment: Antimalarial activity against Plasmodium falciparum 3D7 infected in human erythrocytes assessed as LDH activity at 100 nM after 72 hrs by plate reader analysis; format: functional, organism-based
Tubulin (Homo sapiens) [13] = target: T1, Tubulin (Homo sapiens); experiment: Inhibition of tubulin polymerization in human HeLa cells assessed as reduction of microtubule formation at 30 nM after 6 hrs by DAPI staining-based immunofluorescence assay; format: cell-based
[14] = target: T2, Cyclin-dependent kinase 2/cyclin E1 (Homo sapiens); experiment: Inhibition of N-terminal GST-tagged human full length CDK2/Cyclin E1 expressed in baculovirus using histone H1 as substrate at 10 uM after 1 hr by off-chip Mobility Shift Assay
Pyricularia oryzae = experiment: Antimicrobial activity against Magnaporthe oryzae Kita-1 at 100 nM after 48 hrs by standard microdilution method; format: functional, organism-based
Tubulin (Homo sapiens) [15] = target: T1, Tubulin (Homo sapiens); experiment: Inhibition of acetylated tubulin accumulation in human HeLa cells at 1 to 100 nM after 6 hrs by Western blot analysis; format: cell-based
[16] = target: CDK4/Cyclin D3 (Homo sapiens) (UniProt P11802+P30281); experiment: Inhibition of human full length N-terminal GST-fusion protein CDK4/GST-tagged Cyclin D3 expressed in baculovirus using DYRKtide-F as substrate at 0.1 uM after 1 hr by off-chip Mobility Shift Assay
[17] = target: Epidermal growth factor receptor (Homo sapiens) (UniProt P00533); experiment: Inhibition of N-terminal GST fusion protein human EGFR cytoplasmic domain expressed in baculovirus using Srctide as substrate at 0.1 uM after 1 hr by off-chip Mobility Shift Assay
Tubulin (Homo sapiens) [18] = target: T1, Tubulin (Homo sapiens); experiment: Inhibition of tubulin polymerization in human HeLa cells assessed as reduction of microtubule formation at 300 nM after 6 hrs by DAPI staining-based immunofluorescence assay; format: cell-based
Tubulin (Homo sapiens) [19] = target: T1, Tubulin (Homo sapiens); experiment: Inhibition of acetylated tubulin accumulation in human HeLa cells at 300 nM after 6 hrs by Western blot analysis; format: cell-based
Tubulin (Homo sapiens) [20] = target: T1, Tubulin (Homo sapiens); experiment: Inhibition of tubulin polymerization in human HeLa cells assessed as reduction of microtubule formation at 1000 nM after 6 hrs by DAPI staining-based immunofluorescence assay; format: cell-based

Platelet-derived growth factor receptor beta (Homo sapiens), sequence (P09619 whole entry, the tested form may be a part): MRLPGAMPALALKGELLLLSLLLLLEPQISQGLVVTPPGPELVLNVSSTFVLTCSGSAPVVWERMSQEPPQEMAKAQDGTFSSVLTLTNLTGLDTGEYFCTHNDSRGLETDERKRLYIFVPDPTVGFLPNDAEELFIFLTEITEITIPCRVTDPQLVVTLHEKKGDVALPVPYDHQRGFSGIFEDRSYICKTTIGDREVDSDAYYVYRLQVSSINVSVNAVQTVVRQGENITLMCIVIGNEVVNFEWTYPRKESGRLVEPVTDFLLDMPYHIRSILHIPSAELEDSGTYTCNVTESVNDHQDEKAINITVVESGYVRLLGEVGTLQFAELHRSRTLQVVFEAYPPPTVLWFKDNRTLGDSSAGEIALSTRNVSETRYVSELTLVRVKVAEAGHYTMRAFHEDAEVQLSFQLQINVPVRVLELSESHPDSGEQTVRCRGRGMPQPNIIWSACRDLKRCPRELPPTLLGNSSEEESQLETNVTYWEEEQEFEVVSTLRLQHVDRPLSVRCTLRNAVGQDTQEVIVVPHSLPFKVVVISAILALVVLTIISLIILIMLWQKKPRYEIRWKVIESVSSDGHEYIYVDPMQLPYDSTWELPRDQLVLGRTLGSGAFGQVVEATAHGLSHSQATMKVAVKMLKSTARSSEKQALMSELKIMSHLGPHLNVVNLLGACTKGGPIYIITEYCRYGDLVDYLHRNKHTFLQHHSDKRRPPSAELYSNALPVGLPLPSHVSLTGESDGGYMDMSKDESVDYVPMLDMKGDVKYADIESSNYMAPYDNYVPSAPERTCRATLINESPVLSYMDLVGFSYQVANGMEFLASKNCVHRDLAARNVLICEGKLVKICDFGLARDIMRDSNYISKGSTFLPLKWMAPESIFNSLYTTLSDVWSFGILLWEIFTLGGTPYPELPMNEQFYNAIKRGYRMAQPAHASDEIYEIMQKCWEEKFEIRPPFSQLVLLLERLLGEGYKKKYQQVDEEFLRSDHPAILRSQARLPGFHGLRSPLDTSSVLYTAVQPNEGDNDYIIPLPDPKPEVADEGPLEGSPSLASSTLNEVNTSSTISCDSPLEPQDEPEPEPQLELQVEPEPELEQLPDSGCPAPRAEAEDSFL
Vascular endothelial growth factor receptor 2 (Homo sapiens), sequence (P35968 whole entry, the tested form may be a part): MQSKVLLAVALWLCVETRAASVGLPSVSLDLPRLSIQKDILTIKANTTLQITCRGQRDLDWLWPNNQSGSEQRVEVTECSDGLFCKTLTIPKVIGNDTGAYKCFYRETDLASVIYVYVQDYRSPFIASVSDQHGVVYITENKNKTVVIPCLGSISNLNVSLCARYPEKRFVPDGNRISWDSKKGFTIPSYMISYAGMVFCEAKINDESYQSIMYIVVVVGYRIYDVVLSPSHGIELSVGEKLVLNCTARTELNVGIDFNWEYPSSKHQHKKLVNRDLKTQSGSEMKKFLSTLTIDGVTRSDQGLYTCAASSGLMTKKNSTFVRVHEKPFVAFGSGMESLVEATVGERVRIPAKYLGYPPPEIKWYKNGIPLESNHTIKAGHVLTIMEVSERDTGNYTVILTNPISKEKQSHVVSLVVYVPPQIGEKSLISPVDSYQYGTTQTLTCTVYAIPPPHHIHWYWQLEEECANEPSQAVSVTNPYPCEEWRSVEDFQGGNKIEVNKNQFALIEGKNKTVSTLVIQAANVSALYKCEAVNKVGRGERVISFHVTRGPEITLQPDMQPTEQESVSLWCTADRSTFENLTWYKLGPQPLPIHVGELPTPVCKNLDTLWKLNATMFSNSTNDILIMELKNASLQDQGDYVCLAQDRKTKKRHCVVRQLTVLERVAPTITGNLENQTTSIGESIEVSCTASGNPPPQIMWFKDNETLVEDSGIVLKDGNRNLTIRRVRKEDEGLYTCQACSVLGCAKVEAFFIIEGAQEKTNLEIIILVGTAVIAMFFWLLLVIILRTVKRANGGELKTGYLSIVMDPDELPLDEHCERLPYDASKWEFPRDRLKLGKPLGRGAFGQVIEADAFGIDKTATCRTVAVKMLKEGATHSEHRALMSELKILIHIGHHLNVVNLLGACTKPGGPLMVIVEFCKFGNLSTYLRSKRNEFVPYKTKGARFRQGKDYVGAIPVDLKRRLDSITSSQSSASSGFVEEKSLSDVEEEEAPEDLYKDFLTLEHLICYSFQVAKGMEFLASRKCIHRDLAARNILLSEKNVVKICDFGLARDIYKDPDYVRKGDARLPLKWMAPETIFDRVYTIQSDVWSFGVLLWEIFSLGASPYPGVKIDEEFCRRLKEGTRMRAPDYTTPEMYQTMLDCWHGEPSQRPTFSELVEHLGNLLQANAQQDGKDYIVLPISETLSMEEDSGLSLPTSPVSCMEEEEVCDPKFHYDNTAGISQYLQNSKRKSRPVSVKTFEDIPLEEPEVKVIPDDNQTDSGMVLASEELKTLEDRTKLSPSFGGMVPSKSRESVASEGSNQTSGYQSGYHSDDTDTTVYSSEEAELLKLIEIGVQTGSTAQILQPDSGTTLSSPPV
Epidermal growth factor receptor (Homo sapiens), sequence (P00533 whole entry, the tested form may be a part): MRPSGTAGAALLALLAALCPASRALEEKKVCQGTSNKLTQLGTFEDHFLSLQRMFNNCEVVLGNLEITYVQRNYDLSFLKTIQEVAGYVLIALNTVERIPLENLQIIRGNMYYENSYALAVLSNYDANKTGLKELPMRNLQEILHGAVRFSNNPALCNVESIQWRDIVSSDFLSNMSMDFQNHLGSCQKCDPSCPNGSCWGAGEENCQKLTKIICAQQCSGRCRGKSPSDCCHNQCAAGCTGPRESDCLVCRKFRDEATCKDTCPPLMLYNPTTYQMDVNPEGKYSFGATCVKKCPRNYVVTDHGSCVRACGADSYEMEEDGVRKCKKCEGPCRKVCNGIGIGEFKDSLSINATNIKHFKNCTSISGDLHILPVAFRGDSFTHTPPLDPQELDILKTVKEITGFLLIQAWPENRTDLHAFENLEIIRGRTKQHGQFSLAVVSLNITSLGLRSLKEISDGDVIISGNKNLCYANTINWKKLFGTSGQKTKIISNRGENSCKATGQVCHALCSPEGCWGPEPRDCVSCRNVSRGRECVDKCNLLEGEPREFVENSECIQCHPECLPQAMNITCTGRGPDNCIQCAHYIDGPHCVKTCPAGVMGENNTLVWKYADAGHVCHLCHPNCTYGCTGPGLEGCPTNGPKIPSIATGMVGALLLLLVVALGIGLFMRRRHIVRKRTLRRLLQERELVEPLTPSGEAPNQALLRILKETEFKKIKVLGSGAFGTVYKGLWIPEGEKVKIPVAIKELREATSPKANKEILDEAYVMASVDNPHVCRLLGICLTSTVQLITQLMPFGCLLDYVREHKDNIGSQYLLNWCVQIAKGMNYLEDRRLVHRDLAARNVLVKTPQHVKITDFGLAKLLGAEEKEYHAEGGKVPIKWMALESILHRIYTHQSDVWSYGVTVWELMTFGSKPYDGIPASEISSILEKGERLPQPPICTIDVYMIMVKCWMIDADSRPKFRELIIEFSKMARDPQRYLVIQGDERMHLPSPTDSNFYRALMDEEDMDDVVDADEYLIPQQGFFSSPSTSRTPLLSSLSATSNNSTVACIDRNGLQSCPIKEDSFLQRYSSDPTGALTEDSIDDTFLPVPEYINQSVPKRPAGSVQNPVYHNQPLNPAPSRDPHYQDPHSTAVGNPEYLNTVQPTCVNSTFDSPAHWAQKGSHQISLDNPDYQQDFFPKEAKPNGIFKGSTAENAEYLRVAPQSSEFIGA
Tubulin (Sus scrofa), sequence (P02550 whole entry, looked up, the tested form may be a part): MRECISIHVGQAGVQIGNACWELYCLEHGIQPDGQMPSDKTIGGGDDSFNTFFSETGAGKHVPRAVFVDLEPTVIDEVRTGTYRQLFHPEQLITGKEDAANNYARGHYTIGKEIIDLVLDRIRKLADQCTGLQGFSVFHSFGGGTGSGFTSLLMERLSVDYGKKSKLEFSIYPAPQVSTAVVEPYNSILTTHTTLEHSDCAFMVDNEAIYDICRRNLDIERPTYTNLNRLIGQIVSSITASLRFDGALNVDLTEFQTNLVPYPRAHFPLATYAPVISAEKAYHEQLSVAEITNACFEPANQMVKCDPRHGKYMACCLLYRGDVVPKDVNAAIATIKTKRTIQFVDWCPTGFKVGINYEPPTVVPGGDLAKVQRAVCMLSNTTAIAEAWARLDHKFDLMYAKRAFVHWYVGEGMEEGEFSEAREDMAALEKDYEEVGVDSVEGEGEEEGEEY
Tubulin (Sus scrofa), sequence (P02554 whole entry, looked up, the tested form may be a part): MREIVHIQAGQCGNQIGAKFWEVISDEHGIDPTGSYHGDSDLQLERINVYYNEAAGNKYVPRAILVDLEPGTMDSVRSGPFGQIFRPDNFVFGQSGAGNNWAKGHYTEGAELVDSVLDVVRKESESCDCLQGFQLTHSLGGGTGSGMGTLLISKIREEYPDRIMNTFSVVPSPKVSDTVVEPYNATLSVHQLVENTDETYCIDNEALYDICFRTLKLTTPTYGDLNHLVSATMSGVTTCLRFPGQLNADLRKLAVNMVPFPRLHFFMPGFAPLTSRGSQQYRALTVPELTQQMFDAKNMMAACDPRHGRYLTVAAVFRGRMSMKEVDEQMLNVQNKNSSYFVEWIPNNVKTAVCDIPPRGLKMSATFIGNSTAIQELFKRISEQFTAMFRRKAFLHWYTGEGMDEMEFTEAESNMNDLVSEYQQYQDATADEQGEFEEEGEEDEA

Row | Compound | IC50 (PC-3) [nM] | IC50 (HeLa [1]) [nM] | IC50 (HEK293) [nM] | IC50 (HCT-116) [nM] | also measured
1 | COc1ccc(Nc2n[nH]c3c2Cc2cc(OC)ccc2-3)cc1 | > 100 | > 100 | > 100 | > 100 | 
2 | CC(=O)O[C@H]1C(=O)[C@@]2(C)[C@H]([C@H](OC(=O)c3ccccc3)[C@]3(O)C[C@H](OC(=O)[C@H](O)[C@@H](NC(=O)c4ccccc4)c4ccccc4)C(C)=C1C3(C)C)[C@]1(OC(C)=O)CO[C@@H]1C[C@@H]2O |  |  |  |  | inhibition (Tubulin (Homo sapiens) [2]): inactive
3 | COc1cccc(Nc2n[nH]c3c2Cc2ccccc2-3)c1 | > 100 | > 100 | > 100 | > 100 | inhibition (Tubulin (Homo sapiens) [3]): inactive
4 | COc1ccc2c(c1)Cc1c(Nc3ccccc3OC)n[nH]c1-2 | > 100 | 32 | > 100 | 86.2 | 
5 | c1ccc(Nc2n[nH]c3c2Cc2ccccc2-3)cc1 | > 100 | > 100 | > 100 | > 100 | Activity (HeLa [4]): inactive; Activity (HeLa [5]): inactive
6 | COc1ccc2c(c1)Cc1c(Nc3ccccc3O)n[nH]c1-2 | > 100 | > 100 | > 100 | > 100 | 
7 | COc1cccc(Nc2n[nH]c3c2Cc2cc(OC)ccc2-3)c1 | 4.7 | 2.8 | 8.8 | 6.53 | 
8 | COc1ccc2c(c1)Cc1c(Nc3cccc(O)c3)n[nH]c1-2 | 8.6 | 7.1 | > 100 | 10.9 | 
9 | COc1cc2c(c(OC)c1OC)-c1ccc(OC)c(=O)cc1[C@@H](NC(C)=O)CC2 |  |  |  |  | Activity (HeLa [6]): Active
10 | COc1ccc2c(c1)Cc1c(Nc3ccc(OC)c(OC)c3)n[nH]c1-2 | 90.9 | > 100 | > 100 | 86.3 | 
11 | COc1ccc2c(c1)Cc1c(Nc3cccc(C(=O)O)c3)n[nH]c1-2 | > 100 | > 100 | > 100 | > 100 | 
12 | COC(=O)c1cccc(Nc2n[nH]c3c2Cc2cc(OC)ccc2-3)c1 | 2.64 | 2.47 | 2.2 | 2.7 | Activity (Staphylococcus aureus): inactive; inhibition [7]: > 82%; inhibition [8]: > 82%; Activity (HeLa [4]): Active; Activity (Escherichia coli): inactive; Activity (Candida albicans): inactive; inhibition [9]: inactive; Activity (Aspergillus fumigatus): inactive; inhibition [10]: inactive; inhibition [11]: inactive; inhibition (Tubulin (Sus scrofa)): Dose-dependent effect; inhibition [12]: inactive; Activity (Plasmodium falciparum): inactive; inhibition (Tubulin (Homo sapiens) [13]): Active; inhibition [14]: > 82%; Activity (Pyricularia oryzae): inactive; inhibition (Tubulin (Homo sapiens) [15]): Active; inhibition [16]: inactive; inhibition [17]: inactive
13 | COc1cc(Nc2n[nH]c3c2Cc2cc(OC)ccc2-3)cc(OC)c1 | 7 | 3.2 | 4.6 | 7.4 | 
14 | Oc1ccc2c(c1)Cc1c(Nc3ccccc3)n[nH]c1-2 | > 100 | > 100 | > 100 | > 100 | 
15 | COc1ccc2c(c1)Cc1c(Nc3cccc(OCC(C)C)c3)n[nH]c1-2 | 50.5 | 19.9 | 25.5 | 56.6 | inhibition (Tubulin (Homo sapiens) [18]): Active; inhibition (Tubulin (Homo sapiens) [19]): Active
16 | COc1ccc2c(c1)Cc1c-2n[nH]c1Nc1ccccc1 | 35.6 | 8.9 | 53.6 | 26.6 | inhibition (Tubulin (Homo sapiens) [3]): inactive; inhibition (Tubulin (Homo sapiens) [20]): inactive
17 | CCOc1ccc2c(c1)Cc1c(Nc3ccccc3)n[nH]c1-2 | 60.2 | 20.4 | 55.6 | 56.8 | 
